Test results: patent publication US10364226B2, “Pyridazinone compounds and uses thereof” (priority 2013, dated 2019)

Each compound was assayed on Influenza strain A549 A/WSN/33 (H1N1) (assay: Influenza Antiviral Assay). Settings: Influenza A virus, A549, 20 h, neuraminidase fluorescence readout, read-out: % Inhibition.
Assay type: cell-based, Influenza A virus
In the case of `CNC(=O)c1nn(CC2(c3cccc(-c4cn[nH]c4)c3)CCCC2)cc(O)c1=O` [Compound 714], the EC50 is reported as over 100 µM. For `CNC(=O)c1nn(CC2(c3cccc(-c4cncc(F)c4)c3)CCCC2)cc(O)c1=O` [Compound 736], the EC50 was over 100 µM. In the case of `CNC(=O)c1nn(CC2(c3cccc(-c4cn[nH]c4)c3)CC2)cc(O)c1=O` [Compound 712], the EC50 is reported as over 100 µM. `CC(C)Oc1ccc(NC(=O)c2nn(CC3(c4ccccc4)CCCC3)cc(O)c2=O)cc1` [Compound 706] gave an EC50 of over 100 µM. Work on `CNC(=O)c1nn(CC2(c3ccc(-c4ccnn4C)cc3)CC2)cc(O)c1=O` [Compound 710] yielded an EC50 of over 100 µM. With `CNC(=O)c1nn(CC2(c3cccc(-c4cnn(C)c4)c3)CC2)cc(O)c1=O` [Compound 748] the EC50 was over 100 µM. With `CNC(=O)c1nn(-c2ccccc2Sc2cccc(Cl)c2)cc(O)c1=O` [Compound 643] the EC50 was over 100 µM. With `CNC(=O)c1nn(CC2(c3cccc(-c4cncc(F)c4)c3)CC2)cc(O)c1=O` [Compound 727] the EC50 was over 100 µM. `O=C(NCc1cccnn1)c1nn(CC2(c3ccccc3)CCCC2)cc(O)c1=O` [Compound 699] showed an EC50 of under 20 µM. For `CNC(=O)c1nn(CC2(n3cc(-c4cncnc4)c4cccnc43)CCCC2)cc(O)c1=O` [Compound 673], the EC50 was over 100 µM. `CNC(=O)c1nn(CC2(c3ccc(OC)cc3)CC2)cc(O)c1=O` [Compound 675] was tested, and the EC50 was over 100 µM. `O=C(NCc1ccc(F)c(Cl)c1)c1nn(CC2(c3ccc(-c4ccccc4)cc3)CCCC2)cc(O)c1=O` [Compound 746] showed an EC50 of over 100 µM. With `O=C(NCc1ccc(F)c(Cl)c1)c1nn(CC2(c3cccc(Oc4ccccc4)c3)CCCC2)cc(O)c1=O` [Compound 751] the EC50 was over 100 µM. For `CNC(=O)c1nn(Cc2cc(C(F)(F)F)ccc2-c2ccccc2)cc(O)c1=O` [Compound 689], the EC50 was over 100 µM. For `CNC(=O)c1nn(CC2(c3ccc(-c4ccnn4C)cc3)CCCC2)cc(O)c1=O` [Compound 779], the EC50 was over 100 µM. `CNC(=O)c1nn(CC2(c3cccc(-c4cnn(C)c4)c3)CCCC2)cc(O)c1=O` [Compound 769] was tested, and the EC50 was over 100 µM. For `COc1ccc(NC(=O)c2nn(CC3(c4ccccc4)CCCC3)cc(O)c2=O)cc1` [Compound 697], the EC50 was over 100 µM. Work on `CNC(=O)c1nn(CC(Cc2ccccc2)c2cccc(C(F)(F)F)c2)cc(O)c1=O` (centres unmarked) [Compound 647] yielded an EC50 of under 20 µM. `Cc1[nH]c2ccc(CNC(=O)c3nn(CC4(c5cccc(C(F)(F)F)c5)CCCC4)cc(O)c3=O)cc2c1C` [Compound 672] was tested, and the EC50 was under 20 µM. `CNC(=O)c1nn(CC2(c3cccc(OC(F)(F)F)c3)CCCC2)cc(O)c1=O` [Compound 684] showed an EC50 of under 20 µM. With `CNC(=O)c1nn(CC2(c3ccc(C(C)C)cc3)CC2)cc(O)c1=O` [Compound 688] the EC50 was under 20 µM. With `CNC(=O)c1nn(C(Cc2ccccc2)C(=O)NC)cc(O)c1=O` (centres unmarked) [Compound 667] the EC50 was over 100 µM. `CNC(=O)c1nn(CC2(c3cccc(-c4ccc(OC)nc4)c3)CCCC2)cc(O)c1=O` [Compound 734] was tested, and the EC50 was over 100 µM. `CNC(=O)c1nn(CC2(c3cccc(-c4cnc5ccccc5c4)c3)CC2)cc(O)c1=O` [Compound 726] was tested, and the EC50 was under 20 µM. Compound `O=C(NCc1ccccc1)c1nn(CC2(c3ccccc3)CCCC2)cc(O)c1=O` [Compound 698] has an EC50 of under 20 µM. In the case of `CNC(=O)c1nn(CC2(c3cccc(-c4ccn[nH]4)c3)CCCC2)cc(O)c1=O` [Compound 767], the EC50 is reported as under 20 µM. `Cc1cc(OCC2CC2)cc(-c2ccccc2-n2cc(O)c(=O)c(C(=O)O)n2)c1` [Compound 653] showed an EC50 of over 100 µM. In the case of `CNC(=O)c1nn(CC2(c3cccc(-c4ccco4)c3)CC2)cc(O)c1=O` [Compound 739], the EC50 is reported as over 100 µM. Compound `O=C(Nc1ccc(Oc2ccccc2)cc1)c1nn(CC2(c3ccccc3)CCCC2)cc(O)c1=O` [Compound 696] has an EC50 of over 100 µM. For `CNC(=O)c1nn(CC2(c3ccc(-c4cc[nH]n4)cc3)CCCC2)cc(O)c1=O` [Compound 780], the EC50 was under 20 µM. `CNC(=O)c1nn(Cc2ccccc2-c2ccc(C(C)(C)C)cc2)cc(O)c1=O` [Compound 642] was tested, and the EC50 was over 100 µM. `CNC(=O)c1nn(CC2(c3cccc(C(C)C)c3)CC2)cc(O)c1=O` [Compound 702] showed an EC50 of under 20 µM. Compound `CNC(=O)c1nn(CC2(c3cccc(-c4ccco4)c3)CCCC2)cc(O)c1=O` [Compound 745] has an EC50 of under 20 µM. `CNC(=O)c1nn(CC2(c3ccc(-c4cncc(F)c4)cc3)CCCC2)cc(O)c1=O` [Compound 763] was tested, and the EC50 was under 20 µM. `CNC(=O)c1nn(CC2(c3cccc(-c4ccnn4C)c3)CC2)cc(O)c1=O` [Compound 713] was tested, and the EC50 was over 100 µM. `CC(NC(=O)c1nn(CC2(c3cccc(C(F)(F)F)c3)CCCC2)cc(O)c1=O)c1ccccc1` (centres unmarked) [Compound 637] was tested, and the EC50 was under 20 µM. Work on `CNC(=O)c1nn(CC2(c3cccc(-c4ccoc4)c3)CC2)cc(O)c1=O` [Compound 744] yielded an EC50 of over 100 µM. With `CNC(=O)c1nn(CC2(c3ccc(-c4ccc(OC)nc4)cc3)CCCC2)cc(O)c1=O` [Compound 770] the EC50 was under 20 µM. `CNC(=O)c1nn(-c2ccccc2-c2ccc3ccncc3c2)cc(O)c1=O` [Compound 651] showed an EC50 of 20 to 100 µM. `CNC(=O)c1nn(CC2(c3cccc(Oc4ccccc4)c3)CCCC2)cc(O)c1=O` [Compound 725] was tested, and the EC50 was under 20 µM. Work on `CNC(=O)c1nn(CC2(c3cccc(-c4ccncc4)c3)CCCC2)cc(O)c1=O` [Compound 732] yielded an EC50 of over 100 µM. Work on `CNC(=O)c1nn(C(Cc2ccccc2)C(=O)Nc2ccccc2)cc(O)c1=O` (centres unmarked) [Compound 668] yielded an EC50 of over 100 µM. For `CC(C)(C)c1ccc(-c2ccccc2Cn2cc(O)c(=O)c(C(=O)O)n2)cc1` [Compound 657], the EC50 was over 100 µM. With `CNC(=O)c1nn(CC2(c3ccc(C4CCCCC4)cc3)CC2)cc(O)c1=O` [Compound 729] the EC50 was over 100 µM. In the case of `O=C(Nc1ccc(Cl)c(C(F)(F)F)c1)c1nn(CC2(c3ccccc3)CCCC2)cc(O)c1=O` [Compound 719], the EC50 is reported as over 100 µM. `CNC(=O)c1nn(CC2(c3cccc(-c4ccnn4C)c3)CCCC2)cc(O)c1=O` [Compound 731] gave an EC50 of over 100 µM. Compound `CNC(=O)c1nn(CC2(c3ccc(-c4ccncc4)cc3)CCCC2)cc(O)c1=O` [Compound 781] has an EC50 of under 20 µM. For `CNC(=O)c1nn(CC2(c3ccc(-c4cn[nH]c4)cc3)CC2)cc(O)c1=O` [Compound 728], the EC50 was over 100 µM. Compound `CNC(=O)c1nn(CC2(c3cccc(-c4cnc5ccccc5c4)c3)CCCC2)cc(O)c1=O` [Compound 735] has an EC50 of over 100 µM. In the case of `O=C(NCc1ccccn1)c1nn(CC2(c3ccccc3)CCCC2)cc(O)c1=O` [Compound 691], the EC50 is reported as under 20 µM. Work on `CNC(=O)c1nn(CC2(c3ccc(-c4ccc5c(c4)OCO5)cc3)CC2)cc(O)c1=O` [Compound 737] yielded an EC50 of under 20 µM.

These compounds were tested against EN PA (Influenza A virus, UniProt P15659) (assay: EN PA FRET Inhibition Assay). Settings: read-out: Potency.
Assay type: biochemical
`CCOC(=O)c1nn(CC2(c3cc(C(F)(F)F)cc(C(F)(F)F)c3)CCCC2)cc(O)c1=O` [Compound 420] showed an IC50 of 0.1 to 1 µM. Compound `CNC(=O)c1nn(CC2(c3cccc(Oc4ccccc4)c3)CCCC2)cc(O)c1=O` [Compound 701] has an IC50 of under 0.1 µM. `COc1cc(OC)cc(-n2cc(O)c(=O)c(C(=O)O)n2)c1` [Compound 26] was tested, and the IC50 was 0.1 to 1 µM. `O=C(O)c1nn(-c2ccccc2N2CCCC2)cc(O)c1=O` [Compound 200, 5-hydroxy-4-oxo-1-(2-(pyrrolidin-1-yl)phenyl)-1,4-dihydropyridazine-3-carboxylic acid] showed an IC50 of 0.1 to 1 µM. `Cc1ccc(C)c(-c2ccccc2-n2cc(O)c(=O)c(C(=O)O)n2)c1` [Compound 300, 1-(2′,5′-dimethylbiphenyl-2-yl)-5-hydroxy-4-oxo-1,4-dihydropyidazine-3-carboxylic acid] gave an IC50 of 0.1 to 1 µM. `O=C(O)c1nn(-c2cccc(OC(F)(F)F)c2)cc(O)c1=O` [Compound 30] gave an IC50 of at least 1 µM. `COc1cc(Cl)cc(-c2ccccc2-n2cc(O)c(=O)c(C(=O)O)n2)c1` [Compound 323] gave an IC50 of 0.1 to 1 µM. `O=C(NCc1ccc(F)c(Cl)c1)c1nn(CC2(c3ccc(F)c(F)c3)CCCC2)cc(O)c1=O` [Compound 805] showed an IC50 of under 0.1 µM. With `COc1ccccc1CCn1cc(O)c(=O)c(C(=O)O)n1` [Compound 413] the IC50 was under 0.1 µM. Work on `CC(C)(C)OC(=O)N1CCC(c2ccccc2-n2cc(O)c(=O)c(C(=O)O)n2)CC1` [Compound 304] yielded an IC50 of at least 1 µM. `COc1cccc(CCn2cc(O)c(=O)c(C(=O)O)n2)c1` [Compound 414] gave an IC50 of under 0.1 µM. `O=C(O)c1nn(-c2ccccc2-c2ccc3cc[nH]c3c2)cc(O)c1=O` [Compound 313] was tested, and the IC50 was 0.1 to 1 µM. Work on `COc1ccc(CCn2cc(O)c(=O)c(C(=O)O)n2)cc1OC` [Compound 417] yielded an IC50 of 0.1 to 1 µM. Compound `CNC(=O)c1nn(-c2ccccc2N2CCCc3ccccc32)cc(O)c1=O` [Compound 628] has an IC50 of at least 1 µM. For `CNC(=O)c1nn(-c2ccccc2-c2ccc3ccn(C)c3c2)cc(O)c1=O` [Compound 618], the IC50 was at least 1 µM. In the case of `CNC(=O)c1nn(CC2(c3ccccc3)CCCC2)cc(O)c1=O` [Compound 627], the IC50 is reported as 0.1 to 1 µM. `COc1ccc(CCn2cc(O)c(=O)c(C(=O)O)n2)cc1` [Compound 415] was tested, and the IC50 was 0.1 to 1 µM. Work on `O=C(O)c1nn(-c2ccccc2-c2cccc3c2oc2ccccc23)cc(O)c1=O` [Compound 316] yielded an IC50 of 0.1 to 1 µM. `O=C(NC1CC1)c1nn(CC2(c3cc(C(F)(F)F)cc(C(F)(F)F)c3)CCCC2)cc(O)c1=O` [Compound 508] showed an IC50 of 0.1 to 1 µM. Work on `CNC(=O)c1nn(CCc2cccc(C(F)(F)F)c2)cc(O)c1=O` [Compound 608] yielded an IC50 of at least 1 µM. Work on `O=C(NCc1ccc(F)c(Cl)c1)c1nn(CC2(c3cccnc3)CCCC2)cc(O)c1=O` [Compound 802] yielded an IC50 of under 0.1 µM. `COc1cccc(-n2cc(O)c(=O)c(C(=O)O)n2)c1` [Compound 5] was tested, and the IC50 was 0.1 to 1 µM. In the case of `O=C(O)c1nn(-c2ccccc2-c2ccccc2OC2CCCCC2)cc(O)c1=O` [Compound 317], the IC50 is reported as under 0.1 µM. With `CC1(C)CCCN(c2ccccc2-n2cc(O)c(=O)c(C(=O)O)n2)C1` [Compound 209] the IC50 was 0.1 to 1 µM. `CCOC(=O)c1nn(-c2ccccc2S(=O)(=O)c2ccccc2)cc(O)c1=O` [Compound 44] showed an IC50 of at least 1 µM. `Cc1ccc(-c2ccccc2-n2cc(O)c(=O)c(C(=O)O)n2)cc1` [Compound 303] was tested, and the IC50 was 0.1 to 1 µM. `CC(C)COc1ccccc1-c1ccccc1-n1cc(O)c(=O)c(C(=O)O)n1` [Compound 325] showed an IC50 of under 0.1 µM. `CCCCOc1ccc(-n2cc(O)c(=O)c(C(=O)O)n2)cc1` [Compound 25] showed an IC50 of at least 1 µM. `CNC(=O)c1nn(-c2ccccc2-c2ccccc2OC(F)(F)F)cc(O)c1=O` [Compound 520] gave an IC50 of at least 1 µM.
